The values below come from PubChem BioAssay AID2821 (Broad Institute, 2010).

The source made the active and inactive calls.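 Rule for the calls: active = IC50 no more than a set number of log units above the top dose tested; inconclusive = flat fit with 30 to 70% inhibition, or a poor fit; inactive = IC50 beyond that set limit.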

What is called IC50 is the concentration at which inhibition is half-maximal.

Sequence of Serine/threonine-protein kinase 33 (Homo sapiens) (Q9BYT3 whole entry, looked up): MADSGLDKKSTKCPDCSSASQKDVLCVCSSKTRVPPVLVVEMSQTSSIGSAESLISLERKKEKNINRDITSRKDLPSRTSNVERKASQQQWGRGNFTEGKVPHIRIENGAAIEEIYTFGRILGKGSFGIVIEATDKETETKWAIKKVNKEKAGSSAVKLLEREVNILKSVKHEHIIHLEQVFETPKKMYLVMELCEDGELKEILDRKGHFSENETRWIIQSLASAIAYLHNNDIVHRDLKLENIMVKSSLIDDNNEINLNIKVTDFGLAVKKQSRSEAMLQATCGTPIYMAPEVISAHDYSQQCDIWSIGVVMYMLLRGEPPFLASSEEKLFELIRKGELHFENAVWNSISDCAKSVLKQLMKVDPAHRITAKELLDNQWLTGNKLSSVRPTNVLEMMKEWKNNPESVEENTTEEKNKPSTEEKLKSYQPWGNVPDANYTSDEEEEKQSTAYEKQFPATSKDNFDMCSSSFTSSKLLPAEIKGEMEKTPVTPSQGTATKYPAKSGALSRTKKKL

This assay concerns the target Serine/threonine-protein kinase 33 (Homo sapiens) (UniProt Q9BYT3). Description: inhibition of STK33 phosphorylation of MBP – biochemical, luminescence, cell-free, retest, dose response (AID 2821). The note with it: purified STK33, MBP substrate, ADP-Glo luminescence. For orientation: ADP-Glo first removes unused ATP, then detects ADP through luciferase.
Take `COc1cc(/C=C/C(=O)/C=C(O)/C=C/c2ccc(O)c(OC)c2)ccc1O`: the IC50 is 0.71 µM. With `CCn1c2ccc(/C(C)=N\O)cc2c2cc(/C(C)=N\O)ccc21` the figure was > 12 µM (inactive); with `COC(=O)c1cccc2c1-c1ccccc1/C2=N/O`, 11.8 µM. For `COc1cc(/C=C/C(O)=C/C(=O)/C=C/c2ccc(O)cc2)ccc1O`, the half-inhibitory concentration (IC50) is 1.75 µM. `COc1cc(N=Cc2c(O)[nH]c3ccccc23)cc(OC)c1OC`: the concentration for half-maximal inhibition (IC50) was 4.93 µM. Then `Oc1ccc(/C=C/c2ccnc3ccccc23)cc1`, with 11.5 µM; and `NS(=O)(=O)c1ccc2c(c1)C(=NO)c1cc(S(N)(=O)=O)ccc1-2`, with 4.91 µM. Regarding `CCCn1c2ccc(/C(C)=N\O)cc2c2cc(/C(C)=N/O)ccc21`, the IC50 is 2.48 µM.

On to `Oc1ccc(/C=N/Nc2ccnc3cc(Cl)ccc23)cc1O`, for which the IC50 was 3.05 µM. With `O=C1C(c2ccncc2)=C(O)c2ccccc21` the figure was 10.3 µM; with `N#C/C(=C(/O)c1ccco1)c1nc2ccccc2[nH]1`, 8.49 µM; with `Oc1[nH]c2ccccc2c1C=Nc1ccc2c(c1)OCO2`, 11.3 µM.

As for `COc1cc(C2c3sc(=O)[nH]c3SC3C(=O)N(c4ccc(C)cc4)C(=O)C32)ccc1O` (stereo not given), the IC50 was > 12 µM (inactive). With `COc1ccc(N=Cc2c(O)[nH]c3ccccc23)cc1OC`, the IC50 is 5.22 µM. For `O=c1c(/C=N/O)c(Nc2ccccc2)nc2ccccn12`, the IC50 was 6.22 µM.
